Like-named read-outs stand apart in the source and are kept apart here. Numbered stars: 1 amine (or outer) side, 2 acyl side, 3 side chain; on linkers, the order of the positions; unused ones are H or OH. Square brackets hold non-standard residues; d marks the D form. Side chains are listed from the residue outwards. Peptide text beside a SMILES is read from it. * marks the point of attachment. C18 diacid = O=C(O)CCCCCCCCCCCCCCCCC(=O)*; γGlu = O=C(O)[C@H](CCC(=O)[*:2])N[*:1]; αMeF = C[C@](N)(Cc1ccccc1)C(=O)O; αMeK = C[C@](N)(CCCCN)C(=O)O; αMeS = C[C@](N)(CO)C(=O)O; AEEA = NCCOCCOCC(=O)O; Aib = CC(C)(N)C(=O)O
Columns and labels:
Type in all cases: cell-based
[1] = biological target: T1, human GLP-1 receptor (GLP-1R) (Homo sapiens, UniProt P43220); assay: cAMP assay, human GLP-1R cells
T1 construct: expressed in transfected cells
T1 sequence (P43220 24-463): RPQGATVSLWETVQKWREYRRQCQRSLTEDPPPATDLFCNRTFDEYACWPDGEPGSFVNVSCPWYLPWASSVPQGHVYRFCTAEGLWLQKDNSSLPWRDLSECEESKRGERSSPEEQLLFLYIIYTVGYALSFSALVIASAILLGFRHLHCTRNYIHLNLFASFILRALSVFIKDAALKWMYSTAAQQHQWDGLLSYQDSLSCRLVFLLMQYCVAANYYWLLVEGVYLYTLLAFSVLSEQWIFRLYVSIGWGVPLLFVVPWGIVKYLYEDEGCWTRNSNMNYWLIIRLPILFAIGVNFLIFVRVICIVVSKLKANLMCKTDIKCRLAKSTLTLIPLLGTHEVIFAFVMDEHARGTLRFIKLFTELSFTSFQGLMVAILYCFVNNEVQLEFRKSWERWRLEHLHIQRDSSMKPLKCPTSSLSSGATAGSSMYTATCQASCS
Procedure, shortened: (§1)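 Peptide-stimulated cAMP measured by two-step HTRF after a 30 min room-temperature incubation with receptor-expressing cells (hGLP-1R, hGIPR at 1×10^5 cells/ml; hGCGR at 2×10^5 cells/ml). Duplicate dilutions; EC50 from 4-parameter logistic fit of % Delta F.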

[2] = biological target: T2, human glucagon receptor (GCGR) (Homo sapiens, UniProt P47871); assay: cAMP assay, human GCGR cells; details: cAMP assay
T2 construct: expressed in transfected cells
T2 sequence (P47871 26-477): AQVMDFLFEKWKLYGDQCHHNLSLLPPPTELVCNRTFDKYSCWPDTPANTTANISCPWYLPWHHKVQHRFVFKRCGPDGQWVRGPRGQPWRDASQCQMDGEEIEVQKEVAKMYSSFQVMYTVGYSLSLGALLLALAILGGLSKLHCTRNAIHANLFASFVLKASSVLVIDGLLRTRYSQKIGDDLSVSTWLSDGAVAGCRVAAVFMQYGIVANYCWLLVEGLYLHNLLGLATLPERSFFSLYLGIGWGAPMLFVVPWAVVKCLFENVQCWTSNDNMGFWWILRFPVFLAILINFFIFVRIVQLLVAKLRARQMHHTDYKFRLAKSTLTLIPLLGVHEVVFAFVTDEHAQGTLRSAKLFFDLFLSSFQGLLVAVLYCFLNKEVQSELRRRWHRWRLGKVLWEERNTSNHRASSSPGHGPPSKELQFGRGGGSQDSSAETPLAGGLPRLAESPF
Procedure, shortened: as §1

[3] = biological target: T3, human glucose-dependent insulinotropic peptide receptor (GIPR) (Homo sapiens, UniProt P48546); assay: cAMP assay, human GIPR cells; details: cAMP assay
T3 construct: expressed in transfected cells
T3 sequence (P48546 22-466): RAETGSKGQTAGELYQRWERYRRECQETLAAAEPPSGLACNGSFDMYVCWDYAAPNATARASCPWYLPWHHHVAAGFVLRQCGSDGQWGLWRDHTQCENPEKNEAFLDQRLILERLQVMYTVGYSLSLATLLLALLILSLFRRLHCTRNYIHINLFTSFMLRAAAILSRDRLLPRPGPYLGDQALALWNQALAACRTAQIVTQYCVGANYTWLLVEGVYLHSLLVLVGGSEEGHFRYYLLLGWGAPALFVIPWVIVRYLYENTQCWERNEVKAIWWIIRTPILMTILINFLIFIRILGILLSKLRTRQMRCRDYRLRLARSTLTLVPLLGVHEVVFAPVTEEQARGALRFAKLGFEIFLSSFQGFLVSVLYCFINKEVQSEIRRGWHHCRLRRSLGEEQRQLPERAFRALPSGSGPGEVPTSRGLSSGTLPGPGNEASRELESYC
Procedure, shortened: as §1

GLP-1R (INS1e assay) = biological target: T4, GLP-1R (INS1e assay) (Rattus norvegicus, UniProt P32301); assay: INS1e assay, cAMP activity at GLP-1R; details: mono-lipidated peptides
T4 construct: endogenous in cells; host or cells: INS-1E cells
T4 sequence (P32301 22-463): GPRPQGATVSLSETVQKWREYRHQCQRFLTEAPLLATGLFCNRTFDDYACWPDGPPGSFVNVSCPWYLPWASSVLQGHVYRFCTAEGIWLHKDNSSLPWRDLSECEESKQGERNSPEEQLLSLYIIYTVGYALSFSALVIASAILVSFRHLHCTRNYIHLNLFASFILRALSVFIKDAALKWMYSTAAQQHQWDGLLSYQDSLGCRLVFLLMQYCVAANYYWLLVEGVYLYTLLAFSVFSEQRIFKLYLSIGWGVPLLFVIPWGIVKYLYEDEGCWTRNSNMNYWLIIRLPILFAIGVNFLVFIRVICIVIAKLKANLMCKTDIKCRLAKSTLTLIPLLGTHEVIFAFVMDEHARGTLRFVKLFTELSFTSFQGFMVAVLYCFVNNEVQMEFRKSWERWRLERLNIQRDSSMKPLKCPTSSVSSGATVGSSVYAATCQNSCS
Procedure, shortened: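 It pairs cAMP-d2 acceptor with anti-cAMP cryptate donor, both prepared 1/20 in conjugate/lysis buffer, applied as a two-step protocol.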

[4] = cAMP assay, first determination (n1), read-out: Primary assay EC50 GLP-1R n1
[5] = cAMP assay, second determination (n2), read-out: Primary assay EC50 GLP-1R n2
[6] = mean of n1 and n2, read-out: Mean pM GLP-1R
[7] = first determination (n1), read-out: Primary assay EC50 Gluc-R (n1)
[8] = second determination (n2), read-out: Primary assay EC50 Gluc-R (n2)
[9] = first determination (n1), read-out: Primary assay EC50 GIP-R (n1)
[10] = second determination (n2), read-out: Primary assay EC50 GIP-R (n2)
[11] = mean of n1 and n2, read-out: INS1e assay EC50 Mean pM GLP-1R
[12] = replicate n1, read-out: INS1e assay EC50 GLP-1R n1
[13] = replicate n2, read-out: INS1e assay EC50 GLP-1R n2

Row | EC50 [1, 4] [pM] | EC50 [1, 5] [pM] | EC50 [1, 6] [pM] | EC50 [2, 7] [nM] | EC50 [2, 8] [nM] | EC50 [3, 9] [nM] | EC50 [3, 10] [nM] | EC50 (GLP-1R (INS1e assay); [11]) [pM] | EC50 (GLP-1R (INS1e assay); [12]) [pM] | EC50 (GLP-1R (INS1e assay); [13]) [pM] | SMILES
1 | 11 | 7.1 | 9 | ≥ 28 | ≥ 28 | ≥ 28 | ≥ 28 | 122 | 129 | 115 | CCCCCCCCCCCC(=O)NCCCCCC(=O)NCCCCCC(=O)NCCCC[C@H](NC(=O)[C@H](C)NC(=O)[C@H](C)NC(=O)[C@H](CCC(=O)O)NC(=O)CNC(=O)[C@H](CCC(=O)O)NC(=O)[C@H](CC(C)C)NC(=O)[C@](C)(Cc1ccccc1)NC(=O)[C@H](CO)NC(=O)[C@](C)(CO)NC(=O)[C@@H](NC(=O)[C@H](CC(=O)O)NC(=O)[C@H](CO)NC(=O)[C@@H](NC(=O)[C@](C)(Cc1ccccc1)NC(=O)[C@H](CO)NC(=O)CNC(=O)[C@H](CCC(=O)O)NC(=O)C(C)(C)NC(=O)[C@@H](N)Cc1c[nH]cn1)[C@@H](C)O)C(C)C)C(=O)N[C@@H](CCC(=O)O)C(=O)N[C@@](C)(Cc1ccccc1)C(=O)N[C@H](C(=O)N[C@@H](C)C(=O)N[C@@](C)(Cc1ccccc1)C(=O)N[C@H](C(=O)N[C@H](C(=O)N[C@@](C)(CCCCN)C(=O)NCC(=O)NCC(N)=O)C(C)C)C(C)C)[C@@H](C)CC [compound 132]
2 | 3.8 | 3.46 | 4 | ≥ 25 | ≥ 25.4 | ≥ 25 | ≥ 25.4 | 248 | 38 | 458 | CC[C@H](C)[C@H](NC(=O)[C@](C)(Cc1ccccc1)NC(=O)[C@H](CCCCNC(=O)COCCOCCNC(=O)COCCOCCNC(=O)CC[C@H](NC(=O)CCCCCCCCCCCCCCCCC(=O)O)C(=O)O)NC(=O)[C@](C)(CCCCN)NC(=O)[C@H](C)NC(=O)[C@H](C)NC(=O)[C@H](CCC(=O)O)NC(=O)CNC(=O)[C@H](CCC(=O)O)NC(=O)[C@H](CC(C)C)NC(=O)[C@](C)(Cc1ccccc1)NC(=O)[C@H](CO)NC(=O)[C@](C)(CO)NC(=O)[C@@H](NC(=O)[C@H](CC(=O)O)NC(=O)[C@H](CO)NC(=O)[C@@H](NC(=O)[C@](C)(Cc1ccccc1)NC(=O)[C@H](CO)NC(=O)CNC(=O)[C@H](CCC(=O)O)NC(=O)C(C)(C)NC(=O)[C@@H](N)Cc1c[nH]cn1)[C@@H](C)O)C(C)C)C(=O)N[C@@H](C)C(=O)N[C@@](C)(Cc1ccccc1)C(=O)N[C@H](C(=O)N[C@H](C(=O)N[C@@](C)(CCCCN)C(=O)NCC(=O)NCC(N)=O)C(C)C)C(C)C [compound 108] (H-H[Aib]EGS[αMeF]TSDV[αMeS]S[αMeF]LEGEAA[αMeK]K([AEEA-AEEA-γGlu-C18 diacid])[αMeF]IA[αMeF]VV[αMeK]GG-NH2; N-terminus assumed)

Source: patent US10414811B2, “Protease-resistant lipidated GLP-1 analogs” (MEDIMMUNE LIMITED, priority 2015, dated 2019)
